Measurements reported in patent US12129244B2, “Modulators of Mas-related G-protein receptor X2 and related products and methods” (Escient Pharmaceuticals, Inc., priority 2022, dated 2024).

How the values were obtained:
Human LAD2 cells = experiment: Mast Cell Beta-Hexosaminidase Release Assay; assay type: cell-based; settings: 500 nM Cortistatin-14, read-out: MRGPRX2 Antagonist Activity
Procedure: Human LAD2 cells (NIH) were maintained in an incubator at 37° C. with 5% CO2 and cultured in StemPro-34 serum-free media (Gibco 10639011) supplemented with 2 mM L-glutamine, 100 U/ml penicillin, […] streptomycin and 100 ng/ml SCF (Invitrogen PEP0860), at a concentration of 2-5×10^5 cells/mL, with hemidepletion every 1-2 weeks.
Cells were transferred to SCF-Free medium at 2.5×10^5 cells/mL and kept in an incubator overnight. On the day of the assay, cells were washed twice in Assay Buffer (final concentrations 10 mM HEPES, 137 mM NaCl, 5.6 mM D-glucose, 2.7 mM KCl, 1 mM MgCl, 1.8 mM CalCl2, 0.4 mM Na2HPO4·7H2O, 0.04% BSA, pH=7.4) and plated in a 96-well v-bottom plate at 20,000 cells per well in 80 μL Assay Buffer. Antagonist compounds solubilized at 10 mM in DMSO were diluted in Assay Buffer to 10× final desired concentrations as a 10-point curve (10 μM final top concentration with 1:3 serial dilutions) and 10 μL added per well. Plates were then incubated for 1 hour at 37° C. Agonists were diluted in Assay Buffer to 10× desired concentrations and 10 μL of the appropriate agonist added to each well. The final concentration of Cortistatin-14 (Tocris 3374) used in antagonist assays was 500 nM. Final concentrations of DMSO were kept consistent across the plate. Plates were then incubated in a warm air oven for 30 minutes at 37° C., followed by centrifugation at 4° C. for 5 minutes at 450×g. 50 μL supernatant from each well was then transferred to a 96-well flat bottom plate containing 100 μL substrate solution per well (3.5 mg/mL p-Nitrophenyl-N-acetyl-β-D-glucosaminide (Sigma 487052) in Citrate Buffer containing a final concentration of 40 mM Citric Acid, 20 mM Na2HPO4·7H2O, pH=4.5). To the cell pellets left in the remaining assay buffer, 150 μL 0.1% Triton-X-100 was then added to each well, resuspended by pipetting up and down, and 50 μL cell lysates transferred to a second 96-well flat bottom plate containing 100 μL substrate solution per well. Plates containing transferred supernatant and cell lysates were then incubated in a warm air oven for 90 minutes at 37° C. After incubation, 50 μL of 400 mM Glycine buffer (pH 10.7) was added into each well and the plate was read on a Molecular Devices SpectraMax iD5 plate reader (absorbance at 405 nm with reference filter at 620 nm). After background subtraction, the percentage degranulation (percent beta-hexosaminidase release) was calculated as 100×(supernatant values)/(supernatant+lysate values), followed by analysis using GraphPad Prism software to calculate an IC50 value for each compound.
The activity ranges are denoted as follows: “+++++” denotes antagonist activity <100 nM; “++++” denotes antagonist activity between 100 and 500 nM; “+++” denotes activity between 501 and 1000 nM; “++” denotes activity between 1001 and 2500 nM; and “+” denotes activity >2500 nM.

human MRGPRX2 = molecular target: T1, human MRGPRX2 (Homo sapiens, UniProt Q96LB1); experiment: MRGPRX2 activity: IP-One HTRF antagonist assay in CHO cells versus Cortistatin-14; assay type: cell-based; settings: CHO cells stably expressing human MRGPRX2; versus 0.3 uM Cortistatin-14 agonist; IP-1 HTRF
T1 construct: expressed in transfected cells
T1 sequence (Q96LB1 1-330): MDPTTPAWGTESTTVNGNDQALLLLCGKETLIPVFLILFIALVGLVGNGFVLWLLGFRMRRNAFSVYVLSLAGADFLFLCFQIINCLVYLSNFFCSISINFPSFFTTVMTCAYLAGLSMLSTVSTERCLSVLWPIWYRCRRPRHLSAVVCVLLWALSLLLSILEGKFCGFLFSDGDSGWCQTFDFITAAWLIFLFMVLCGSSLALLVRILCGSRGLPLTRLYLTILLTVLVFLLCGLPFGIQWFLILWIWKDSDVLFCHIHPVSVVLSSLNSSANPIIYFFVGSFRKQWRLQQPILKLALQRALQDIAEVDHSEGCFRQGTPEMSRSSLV
Procedure: CHO cells stably transfected to express human MRGPRX2 were maintained in an incubator at 37° C. with 5% CO2 and grown in F12 (HAM) media with 10% fetal bovine serum (FBS), 1% Glutamax, 1% penicillin/streptomycin, 800 μg/mL Geneticin (G418), and 300 μg/mL Hygromycin B.
Cells were plated in a 384-well assay plate at 20,000 cells per well in 12 μL of Opti-MEM and kept in an incubator overnight. On the day of the assay, compounds solubilized at 10 mM in DMSO were added as a 10-point curve (30 uM final top concentration with 1:3 serial dilutions) using a Tecan D300E digital dispenser. Agonists were diluted in assay buffer (final concentrations of 5.7 mM Tris-HCl, 43 mM NaCl, 50 mM LiCl, pH=8) and 2 μL of the agonist Cortistatin-14 (CPC Scientific, catalog CORT-002) are added to each well. Final concentrations of agonists were 0.3 μM Cortistatin. Final concentrations of DMSO were kept consistent across the plate. Plates were incubated in the dark for 1 h at 37° C. and then for 1 h at room temperature. IP-1 standards and HTRF detection reagents were added according to the IP-One-Gq Kit purchased from Cisbio (part number 62IPAPEJ) and incubated in the dark for 1 h at room temperature. The plate was read on a Molecular Devices SpectraMax iD5 plate reader. The HTRF ratio was calculated from the raw data and graphed using GraphPad Prism to calculate an IC50 value for each compound.
The activity ranges are denoted as follows: “+++++” denotes antagonist activity <100 nM; “++++” denotes antagonist activity between 100 and 500 nM; “+++” denotes activity between 501 and 1000 nM; “[…]” denotes activity between 1001 and 2500 nM; and “+” denotes activity >2500 nM

[1] = Mouse Pharmacokinetics Studies (50 mg/kg oral gavage, plasma LC-MS/MS); assay type: in vivo; settings: Male C57BL/6 mice, non-fasted; for AUC(0-t) / Cmax / Tmax: mouse; for Tmax: read-out: PK: Tmax
Procedure: Compounds were formulated in 5% DMSO, 5% Solutol, and 90% PBS without Ca and Mg (pH 7.4) at a concentration of 5 mg/mL. Male C57BL/6 mice (n=3/compound) were administered a 50 mg/kg dose of each compound by oral gavage under a non-fasted condition. Blood samples were collected via the saphenous vein onto K2-EDTA at 0.25, 0.5, 1, 2, 4, 8 and 24 hours after dosing, and plasma was prepared and stored at −80° C. until analysis. Plasma sample preparation for analysis was done by protein precipitation using acetonitrile (including Verapamil as an internal standard) followed by centrifugation. Compound concentrations were determined in extracted plasma using LC-MS/MS relative to a 12-point standard curve covering the 1 to 4000 nM range. Non-compartmental analysis using Phoenix WinNonlin was used to estimate pharmacokinetic parameters including area under the curve, clearance, and half-life. The administered dose was confirmed by analysis of residual dosing material by UPLC-UV relative to a single point calibration sample.

Row | Compound | IC50 (Human LAD2 cells) | IC50 (human MRGPRX2) | AUC 0-24 [1] | AUC(0-t) [1] | Cmax [1] | Tmax [1]
1 | CC1(F)CN(C(=O)N[C@@H]2CCC[C@H](Nc3cc(C(F)(F)F)nc4ccc(Cl)cc34)C2)C1 [Example 45, N-((1R,3S)-3-((6-chloro-2-(trifluoromethyl)quinolin-4-yl)amino)cyclohexyl)-3-fluoro-3-methylazetidine-1-carboxamide] | 100 to 500 nM | – | – | – | – | –
2 | N#Cc1nn(CC(F)(F)F)cc1C(=O)N[C@@H]1CCC[C@H](Nc2cc(C(F)(F)F)nc3ccc(Cl)cc23)C1 [Example 32, N-[(1R,3S)-3-[[6-chloro-2-(trifluoromethyl)-4-quinolyl]amino]cyclohexyl]-3-cyano-1-(2,2,2-trifluoroethyl)pyrazole-4-carboxamide] | < 100 nM | < 100 nM | 390 µM·h | 390 µM·h | 39 µM | 4.7 h
3 | N#Cc1cccc(C(=O)N[C@@H]2CCC[C@H](Nc3cc(C(F)(F)F)nc4ccccc34)C2)c1 [Example 3-4] | 1000 to 2500 nM | – | 230 µM·h | 230 µM·h | 30 µM | 3.3 h
4 | O=C(N[C@@H]1CCC[C@H](Nc2cc(C(F)(F)F)nc3ccccc23)C1)c1ccc(F)cc1 [Example 1-8] | > 2500 nM | – | 650 µM·h | 650 µM·h | 48 µM | 8 h
5 | CC(C)C(=O)N1CCN(C(=O)N[C@@H]2CCC[C@H](Nc3cc(C(F)(F)F)nc4ccc(Cl)cc34)C2)CC1 [Example 44, N-((1R,3S)-3-((6-chloro-2-(trifluoromethyl)quinolin-4-yl)amino)cyclohexyl)-4-isobutyrylpiperazine-1-carboxamide] | < 100 nM | – | – | – | – | –
6 | CS(=O)(=O)Nc1cccc(C(=O)N[C@@H]2CCC[C@H](Nc3cc(C(F)(F)F)nc4ccc(Cl)cc34)C2)c1 (stereo in doubt) [Example 14, N-((1R,3S)-3-((6-chloro-2-(trifluoromethyl)quinolin-4-yl)amino)cyclohexyl)-3-(methylsulfonamido)benzamide] | < 100 nM | < 100 nM | – | – | – | –
7 | COc1ccc(C(=O)N[C@@H]2CCC[C@H](Nc3cc(C(F)(F)F)nc4ccc(C)cc34)C2)cc1 [Example 1-3] | 100 to 500 nM | < 100 nM | 83 µM·h | 83 µM·h | 13 µM | 0.83 h
8 | Nc1ncc(C(=O)N[C@@H]2CCC[C@H](Nc3cc(C(F)(F)F)nc4ccc(Cl)cc34)C2)cn1 [Example 15, 2-amino-N-[(1R,3S)-3-{[6-chloro-2-(trifluoromethyl)quinolin-4-yl]amino}cyclohexyl]pyrimidine-5-carboxamide] | < 100 nM | – | 140 µM·h | 140 µM·h | 36 µM | 1 h
9 | COc1ccc(C(=O)N[C@@H]2CCC[C@H](Nc3cc(C(F)(F)F)nc4ccc(Cl)cc34)C2)cc1 [Example 1, N-((1R,3S)-3-((6-chloro-2-(trifluoromethyl)quinolin-4-yl)amino)cyclohexyl)-4-methoxybenzamide] | < 100 nM | – | 78 µM·h | 78 µM·h | 6.1 µM | 8 h

Now from value to molecule:

Row | IC50 (Human LAD2 cells) | IC50 (human MRGPRX2) | AUC 0-24 [1] | AUC(0-t) [1] | Cmax [1] | Tmax [1] | Compound
10 | < 100 nM | – | – | – | – | – | Cc1cc(C(=O)N[C@@H]2CCC[C@H](Nc3cc(C(F)(F)F)nc4ccc(Cl)cc34)C2)cn1CCF [Example 5-2]
11 | < 100 nM | < 100 nM | 140 µM·h | 140 µM·h | 11 µM | 4 h | COc1ccc(C(=O)N[C@@H]2CCC[C@H](Nc3cc(C(F)(F)F)nc4ccc(Cl)cc34)C2)cn1 [Example 4-414]
12 | < 100 nM | – | – | – | – | – | N#CCn1cc(C(=O)N[C@@H]2CCC[C@H](Nc3cc(C(F)(F)F)nc4ccc(Cl)cc34)C2)c(Cl)n1 [Example 5-3]
13 | < 100 nM | < 100 nM | 640 µM·h | 640 µM·h | 61 µM | 1.3 h | Cn1cc(C(=O)N[C@@H]2CCC[C@H](Nc3cc(C(F)(F)F)nc4ccc(Cl)cc34)C2)cn1 [Example 4-400]
14 | < 100 nM | < 100 nM | – | – | – | – | CNc1ccc(C(=O)N[C@@H]2CCC[C@H](Nc3cc(C(F)(F)F)nc4ccc(F)cc34)C2)cc1 [Example 4-303]
15 | < 100 nM | < 100 nM | – | – | – | – | O=C(N[C@@H]1CCC[C@H](Nc2cc(C(F)(F)F)nc3ccc(Cl)cc23)C1)c1cccc2ncsc12 [Example 4-225]
16 | < 100 nM | < 100 nM | – | – | – | – | CCS(=O)(=O)Nc1cccc(C(=O)N[C@@H]2CCC[C@H](Nc3cc(C(F)(F)F)nc4ccc(F)cc34)C2)c1 [Example 4-304]
17 | 100 to 500 nM | < 100 nM | – | – | – | – | O=C(N[C@@H]1CCC[C@H](Nc2cc(C(F)(F)F)nc3ccc(Cl)cc23)C1)N1CC2(CC2)C1 [Example 8-9]
18 | < 100 nM | < 100 nM | – | – | – | – | O=C(N[C@@H]1CCC[C@H](Nc2cc(C(F)(F)F)nc3ccc(Cl)cc23)C1)c1ccc(B(O)O)cc1 [Example 4-430]
19 | < 100 nM | – | – | – | – | – | CCS(=O)(=O)Nc1cccc(C(=O)N[C@@H]2CCC[C@H](Nc3cc(C(F)(F)F)nc4ccc(Cl)cc34)C2)c1 [Example 4-241]
20 | < 100 nM | – | – | – | – | – | O=C(N[C@@H]1CCC[C@H](Nc2cc(C(F)(F)F)nc3ccc(Cl)cc23)C1)c1ccc(F)nc1 [4-411]
21 | < 100 nM | – | – | – | – | – | CC(=O)Nc1cccc(C(=O)N[C@@H]2CCC[C@H](Nc3cc(C(F)(F)F)nc4ccc(F)cc34)C2)c1 [Example 4-306]
22 | 501 to 1000 nM | – | – | – | – | – | CC(C)S(=O)(=O)Nc1ccc(F)c(C(=O)N[C@@H]2CCC[C@H](Nc3cc(C(F)(F)F)nc4ccc(F)cc34)C2)c1F [Example 4-318]
